Values of other authors, collected in patent US20210363253A1, “USE OF COMBINED TREATMENT OF PD-1 ANTIBODY AND APATINIB FOR TREATING TRIPLE NEGATIVE BREAST CANCER” (JIANGSU HENGRUI MEDICINE CO., LTD., priority 2017, published 2021).

Conditions: with oxaliplatin, 5-Fu, docetaxel, doxorubicin; preclinical animal experiments

N#CC1(c2ccc(NC(=O)c3cccnc3NCc3ccncc3)cc2)CCCC1 [Apatinib]
efficacy of cytotoxic drugs in combination with Apatinib: significantly increase their efficacy
